Article PMC9229949 (Pharmaceutics, 2022)
Read-outs that look alike come from different tables or passages of the source.

How the values were obtained:
[1] = tested on: β-hematin formation from Fe(III)PPIX (hematin); experiment: β-hematin inhibition activity, oxidizing conditions (O-BHIA, hematin); type: biochemical; conditions: 18 h incubation; median ± S.E.M. of three experiments; free bases; read-out: β-Hematin Inhibitory Activity (BHIA) O-BHIA (Hematin), IC50
Protocol: (§1) A hemin chloride (10 μL of 4 mM stock in 80% DMSO) aliquot was dispensed in a U bottom 96-well microplate, and then, 10 μL of 0.1 M NaOH (O-BHIA) or 4 mM reduced glutathione in PBS at pH 7.0 (R-BHIA) was added, and plates were sealed and incubated at 37 °C for 2 h. After this, 10 μL of the drug dissolved in DMSO was added and incubated for 2 h, followed by the addition of 180 μL of sodium acetate buffer (1.0 M, pH 5.2) and 10 μL of nonionic detergent IGEPAL-CA-630 solution in methanol (10 mg/mL). Plates were sealed and incubated at 37 °C for 18 h. […] The reaction was stopped by the addition of 50 μL of a sodium dodecyl sulfate solution (5.0% v/v in 0.1 M bicarbonate buffer at pH 9.0). Plates were centrifuged at 3700 rpm for 5 min, and 100 μL of supernatant was placed in a separate plate. […] Two independent experiments were performed, and each drug concentration was tested in quadruplicate concentrations.

[2] = tested on: β-hematin formation from Fe(II)PPIX (heme); experiment: β-hematin inhibition activity, reducing conditions (R-BHIA, heme); type: biochemical; conditions: 18 h incubation; median ± S.E.M. of three experiments; free bases; read-out: β-Hematin Inhibitory Activity (BHIA) R-BHIA (Heme), IC50
Protocol: as §1

[3] = tested on: P. falciparum 3D7 (CQ-susceptible) asexual blood stages; experiment: In vitro activity against asexual blood stages of P. falciparum, CQ-susceptible strain 3D7 (HRP2 ELISA); type: cell-based; conditions: Plasmodium falciparum, read-out: P. falciparum, IC50 ± S.E.M., CQ-Susceptible 3D7
Protocol: (§2) The plates were incubated for 72 h at 37 °C in controlled atmosphere. After frozen and thawing the plates, hemolyzed cultures were homogenized by vortexing the plates. The antiparasitic activity was determined using the HRP2 ELISA-based assay Malaria Ag Celisa kit (ref KM2159, Cellabs PTY LDT, Brookvale, Australia). […] IC50s are expressed as means of three to five experiments.

[4] = tested on: P. falciparum W2 (CQ-resistant) asexual blood stages; experiment: In vitro activity against asexual blood stages of P. falciparum, CQ-resistant strain W2 (HRP2 ELISA); type: cell-based; conditions: Plasmodium falciparum, read-out: P. falciparum, IC50 ± S.E.M., CQ-Resistant W2
Protocol: as §2

[5] = tested on: β-hematin formation; experiment: β-hematin formation inhibition by infrared spectroscopy; type: biochemical; set-up: key: Yes indicates β-hematin inhibition; No indicates β-hematin formation; conditions: 3:1 ratio of drug:hematin, qualitative by infrared
Protocol: The conversion of hemin to β-hematin was determined by infrared (IR) spectroscopy as described by Egan et al.. […] Then, 0.3 mL of 0.1 M HCl and 1.7 mL of sodium acetate buffer ([…], pH 5) were added at the same temperature. […] The solid was dried and IR spectra were obtained using attenuated total reflection (ATR) using chloroquine as a positive control.

[6] = Interaction with reduced glutathione (GSH) by monochlorobimane fluorescence assay; conditions: 2 h incubation, 10 to 0.3 drug:GSH molar ratio
Protocol: Ten microliters per well of a solution of 2.0 mM reduced glutathione (Sigma-Aldrich, St. Louis, MO, USA, dissolved in PBS pH 7.2) was distributed in a 96-well microplate containing 170 μL/well of DMSO/PBS (1:1; v/v). Stock solutions of compounds were diluted in DMSO, and 10 μL was added in quadruplicate in the respective wells to a final concentration of 0.015 to 0.5 mM. […] After 1 h incubation at room temperature, fluorescence was recorded (λex = 360 nm, λem = 440 nm). Blank subtraction was performed prior to monochlorobimane addition, and controls included untreated wells (no drug) and no GSH. The results were expressed as a percentage of inhibition of GSH binding to monochlorobimane in comparison to control without compound. At least two independent experiments were performed.

[7] = tested on: 3D7 P. falciparum gametocytes stages I/III; experiment: P. falciparum young gametocytes (stages I/III), luciferase viability; type: cell-based; conditions: Plasmodium falciparum, read-out: IC50, gametocytes of P. falciparum, Stages I/III
Protocol: (§3) The activity of compounds was assessed against young gametocytes (stages I/III) and against mature gametocytes (stage V). […] A volume of 100 μL of 3D7elo1-pfs16-CBG99 gametocytes of 3D7 P. falciparum at 0.5–1% parasitemia and 2% hematocrit were dispensed. […] Luciferase activity was used to determine gametocytes viability. A volume of 100 µL of culture medium was removed from each well to increase hematocrit; 70 µL of resuspended culture was transferred to a black 96-well plate; 70 µL of D-luciferin (1 mM in citrate buffer 0.1 M, pH 5.5) was added. Luminescence measurements were performed after 10 min with 500 ms integration time. The IC50 was extrapolated from nonlinear regression analysis of the concentration–response curve.

[8] = tested on: P. berghei sporozoites in Huh-7 cells; experiment: P. berghei hepatic stages: infection of Huh-7 cells by luciferase-expressing sporozoites; type: cell-based; conditions: Plasmodium berghei, Huh-7, 48 h, read-out: Sporozoites (Inhibition of Infection, %)
Protocol: Huh-7 cells at 1.0 × 10^4 per well were seeded in 96-well plates the day before drug treatment and infection. The culture medium was replaced by infection medium (culture medium supplemented with gentamicin (50 μg/mL) and amphotericin B (0.8 μg/mL)) containing the appropriate concentration of each compound for approximately 1 h prior to infection with sporozoites of firefly luciferase-expressing P. berghei, freshly obtained through the disruption of salivary glands of infected female Anopheles stephensi mosquitoes. An amount of the DMSO solvent equivalent to that present in the highest compound concentration was used as negative control. Sporozoite addition was followed by centrifugation at 1800× g for 5 min. and parasite infection load was measured 48 h after infection by using a bioluminescence assay (Biotium, Hayward, CA, USA). The effect of the compounds on the viability of Huh-7 cells was assessed by performing the AlamarBlue (Invitrogen, Waltham, MA, USA) assay according to the manufacturer’s protocol.

[9] = tested on: 3D7 P. falciparum gametocytes stage V; experiment: P. falciparum mature gametocytes (stage V), luciferase viability; type: cell-based; conditions: Plasmodium falciparum, 3D7, 72 h, read-out: IC50, gametocytes of P. falciparum, Stage V
Protocol: as §3

[10] = Cytotoxicity against J774 cells (CellTiter-Glo); type: cell-based, murine; conditions: mouse, J774 macrophage cells; reference drug, J774; read-out: CC50 for J774
Protocol: (§4) In vitro cytotoxicity was assayed against two mammalian cell lineages, J774 (murine macrophages) and HepG2 (human hepatocellular carcinoma). […] Cell cultures from 60 to 80% confluence were trypsinized, washed in complete medium, and 4 × 10^4 cells were plated in 100 µL per well with complete medium in 96-well flat-bottom white plates for 24 h at 37 °C prior to the addition of the compounds. Triplicate aliquots of compound and the reference drugs (stock solution in DMSO) covering 7 different concentrations at 2-fold dilutions were added to the wells, and plates were incubated for 72 h more. After incubation for 72 h at 37 °C, plates were maintained at room temperature, the culture medium was removed, and 100 µL volume of CellTiter-Glo reagent was added to each well. The bioluminescence was measured using a microplate reader Filtermax F5 Multi-Mode instrument (Molecular Devices) and Softmax software. […] The selectivity index (S.I.) was estimated using the IC50s from mammalian cells divided by the IC50 obtained against the asexual blood stage P. falciparum.

[11] = Cytotoxicity against uninfected HepG2 cells (CellTiter-Glo); type: cell-based; conditions: human, reference drug
Protocol: as §4

SMILES | IC50 [1] | IC50 [2] | β-Hematin Inhibitory Activity (BHIA) Determined by IR [5] | interaction with GSH [6] | also measured
C[C@@H]1CC[C@H]2[C@@H](C)C(=O)O[C@@H]3O[C@@]4(C)CC[C@@H]1[C@]32OO4 [Artemisinin (ARS), artemisinin] | > 1000 µM | 60 ± 10 µM |  |  | 
CCN(CC)CCCC(C)Nc1ccnc2cc(Cl)ccc12 (centres unmarked) [Chloroquine (CQ), chloroquine] | 230 ± 40 µM | 130 ± 30 µM | Yes | neither CQ nor phenanthroline interacted with GSH | IC50 ([3]; 3D7, 72 h): 0.018 ± 0.002 µM; IC50 ([4]; W2, 72 h): 0.459 ± 0.021 µM
C[C@H]1[C@@H](O)O[C@@H]2O[C@@]3(C)CC[C@H]4[C@H](C)CC[C@@H]1[C@@]24OO3 [DHA, dihydroartemisinin] |  |  |  |  | IC50 ([7]; 3D7 strain, 72 h, mean ± S.D. of one experiment): 0.0123 ± 0.0054 µM
COc1cc(NC(C)CCCN)c2ncccc2c1 (centres unmarked) [Primaquine (PQ), primaquine] | > 1000 µM | > 1000 µM | No |  | IC50 ([3]; 3D7, 72 h incubation, HRP2 ELISA, mean ± S.E.M. of at least three experiments, AQ hydrochloride hydrate, PQ diphosphate, CQ diphosphate): 1.12 ± 0.053 µM; IC50 ([4]; W2, 72 h incubation, HRP2 ELISA, mean ± S.E.M. of at least three experiments, AQ hydrochloride hydrate, PQ diphosphate, CQ diphosphate): 0.182 ± 0.016 µM; inhibition at 10 µM [8]: 52%; IC50 ([7]; 3D7, 72 h): 13.7 ± 7.6 µM; IC50 [9]: 43.2 ± 10.6 µM
COc1cccc2c1C(=O)c1c(O)c3c(c(O)c1C2=O)C[C@@](O)(C(=O)CO)C[C@@H]3O[C@H]1C[C@H](N)[C@H](O)[C@H](C)O1 [doxorubicin] |  |  |  |  | CC50 at 72 h [10]: 0.44 ± 0.31 µM; CC50 at 72 h [11]: < 0.12 µM
c1cnc2c(c1)ccc1cccnc12 [phenanthroline] |  |  |  | neither CQ nor phenanthroline interacted with GSH | 
